Results taken from patent publication US10213433B2 (AbbVie Inc., priority 2010, dated 2019).
pKi: −log10 of the molar value.

molecular target: Bcl-2 protein (Homo sapiens (Human), UniProt P10415); experiment: Bcl-2 binding TR-FRET (Time-Resolved Fluorescence-Resonance-Energy-Transfer) assay; details: inhibition constant for binding to Bcl-2 protein
Excerpt: The smaller the Ki value, the greater is the binding affinity.

Chain of Bcl-2 protein (P10415 whole entry): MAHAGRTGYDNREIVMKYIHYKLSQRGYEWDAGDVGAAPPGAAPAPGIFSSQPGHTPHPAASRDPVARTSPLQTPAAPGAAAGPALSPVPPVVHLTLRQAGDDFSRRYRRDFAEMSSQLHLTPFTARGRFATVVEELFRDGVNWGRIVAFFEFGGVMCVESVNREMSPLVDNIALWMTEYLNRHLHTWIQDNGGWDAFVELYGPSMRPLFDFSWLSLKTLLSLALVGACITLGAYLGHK

Row | SMILES | pKi
1 | CC1(C)CCC(CN2CCN(c3ccc(C(=O)NS(=O)(=O)c4ccc(OCC5(F)CCN(C6CC6)CC5)c([N+](=O)[O-])c4)c(Oc4cnc5[nH]ccc5c4)c3)CC2)=C(c2ccc(Cl)cc2)C1 [Compound 173, 4-(4-{[2-(4-chlorophenyl)-4,4-dimethylcyclohex-1-en-1-yl]methyl}piperazin-1-yl)-N-({4-[(1-cyclopropyl-4-fluoropiperidin-4-yl)methoxy]-3-nitrophenyl}sulfonyl)-2-(1H-pyrrolo[2,3-b]pyridin-5-yloxy)benzamide] | > 11.00
2 | COc1ccc(CNc2ccc(S(=O)(=O)NC(=O)c3ccc(N4CCN(CC5=C(c6ccc(Cl)cc6)CC(C)(C)CC5)CC4)cc3Oc3cnc4[nH]ccc4c3)cc2[N+](=O)[O-])cc1 [Compound 174, 4-(4-{[2-(4-chlorophenyl)-4,4-dimethylcyclohex-1-en-1-yl]methyl}piperazin-1-yl)-N-({4-[(4-methoxybenzyl)amino]-3-nitrophenyl}sulfonyl)-2-(1H-pyrrolo[2,3-b]pyridin-5-yloxy)benzamide] | > 11.00
3 | CC1(C)CCC(CN2CCN(c3ccc(C(=O)NS(=O)(=O)c4ccc(N[C@@H]5CCN(CC(F)F)C5)c([N+](=O)[O-])c4)c(Oc4cnc5[nH]ccc5c4)c3)CC2)=C(c2ccc(Cl)cc2)C1 [Compound 180, 4-(4-{[2-(4-chlorophenyl)-4,4-dimethylcyclohex-1-en-1-yl]methyl}piperazin-1-yl)-N-[(4-{[(3R)-1-(2,2-difluoroethyl)pyrrolidin-3-yl]amino}-3-nitrophenyl)sulfonyl]-2-(1H-pyrrolo[2,3-b]pyridin-5-yloxy)benzamide] | > 11.00
4 | CC1(C)CCC(CN2CCN(c3ccc(C(=O)NS(=O)(=O)c4ccc(N[C@H]5CCN(CC(F)F)C5)c([N+](=O)[O-])c4)c(Oc4cnc5[nH]ccc5c4)c3)CC2)=C(c2ccc(Cl)cc2)C1 [Compound 182, 4-(4-{[2-(4-chlorophenyl)-4,4-dimethylcyclohex-1-en-1-yl]methyl}piperazin-1-yl)-N-[(4-{[(3S)-1-(2,2-difluoroethyl)pyrrolidin-3-yl]amino}-3-nitrophenyl)sulfonyll]-2-(1H-pyrrolo[2,3-b]pyridin-5-yloxy)benzamide] | 10.17
5 | CC1(C)CCC(CN2CCN(c3ccc(C(=O)NS(=O)(=O)c4ccc(N[C@@H]5CCN(CCF)C5)c([N+](=O)[O-])c4)c(Oc4cnc5[nH]ccc5c4)c3)CC2)=C(c2ccc(Cl)cc2)C1 [Compound 183, 4-(4-{[2-(4-chlorophenyl)-4,4-dimethylcyclohex-1-en-1-yl]methyl}piperazin-1-yl)-N-[(4-{[(3R)-1-(2-fluoroethyl)pyrrolidin-3-yl]amino}-3-nitrophenyl)sulfonyl]-2-(1H-pyrrolo[2,b]pyridin-5-yloxy)benzamide] | > 11.00
6 | CC1(C)CCC(CN2CCN(c3ccc(C(=O)NS(=O)(=O)c4ccc(OC[C@H]5CCN(C6COC6)C5)c([N+](=O)[O-])c4)c(Oc4cnc5[nH]ccc5c4)c3)CC2)=C(c2ccc(Cl)cc2)C1 [Compound 184, 4-(4-{[2-(4-chlorophenyl)-4,4-dimethylcyclohex-1-en-1-yl]methyl}piperazin-1-yl)-N-[(3-nitro-4-{[(3S)-1-oxetan-3-ylpyrrolidin-3-yl]methoxy}phenyl)sulfonyl]-2-(1H-pyrrolo[2,3-b]pyridin-5-yloxy)benzamide] | > 11.00
7 | CC1(C)CCC(CN2CCN(c3ccc(C(=O)NS(=O)(=O)c4ccc(OCC5CCN(C6COC6)CC5)c([N+](=O)[O-])c4)c(Oc4cnc5[nH]ccc5c4)c3)CC2)=C(c2ccc(Cl)cc2)C1 [Compound 191, 4-(4-{[2-(4-chlorophenyl)-4,4-dimethylcyclohex-1-en-1-yl]methyl}piperazin-1-yl)-N-({3-nitro-4-[(1-oxetan-3-ylpiperidin-4-yl)methoxy]phenyl}sulfonyl)-2-(1H-pyrrolo[2,3-b]pyridin-5-yloxy)benzamide] | > 11.00
8 | CC1(C)CCC(CN2CCN(c3ccc(C(=O)NS(=O)(=O)c4ccc(OCC5(F)CCN(C6CCOCC6)CC5)c([N+](=O)[O-])c4)c(Oc4cnc5[nH]ccc5c4)c3)CC2)=C(c2ccc(Cl)cc2)C1 [Compound 192, 4-(4-{[2-(4-chlorophenyl)-4,4-dimethylcyclohex-1-en-1-yl]methyl}piperazin-1-yl)-N-({4-[(4-fluoro-1-tetrahydro-2H-pyran-4-ylpiperidin-4-yl)methoxy]-3-nitrophenyl}sulfonyl)-2-(1H-pyrrolo[2,3-b]pyridin-5-yloxy)benzamide] | > 11.00
9 | CC1(C)CCC(CN2CCN(c3ccc(C(=O)NS(=O)(=O)c4ccc(OCC5(F)CCN(C6CCOC6)CC5)c([N+](=O)[O-])c4)c(Oc4cnc5[nH]ccc5c4)c3)CC2)=C(c2ccc(Cl)cc2)C1 (stereo not drawn) [Compound 193, 4-(4-{[2-(4-chlorophenyl)-4,4-dimethylcyclohex-1-en-1-yl]methyl}piperazin-1-yl)-N-({4-[(4-fluoro-1-tetrahydrofuran-3-ylpiperidin-4-yl)methoxy]-3-nitrophenyl}sulfonyl)-2-(1H-pyrrolo[2,3-b]pyridin-5-yloxy)benzamide] | > 11.00
10 | CC1(C)CCC(CN2CCN(c3ccc(C(=O)NS(=O)(=O)c4ccc(OCC5(F)CCN(S(C)(=O)=O)CC5)c([N+](=O)[O-])c4)c(Oc4cnc5[nH]ccc5c4)c3)CC2)=C(c2ccc(Cl)cc2)C1 [Compound 194, 4-(4-{[2-(4-chlorophenyl)-4,4-dimethylcyclohex-1-en-1-yl]methyl}piperazin-1-yl)-N-[(4-{[4-fluoro-1-(methylsulfonyl)piperidin-4-yl]methoxy}-3-nitrophenyl)sulfonyl]-2-(1H-pyrrolo[2,3-b]pyridin-5-yloxy)benzamide] | > 11.00
11 | CC1(C)CCC(CN2CCN(c3ccc(C(=O)NS(=O)(=O)c4ccc(NC[C@H]5CCN(C6COC6)C5)c([N+](=O)[O-])c4)c(Oc4cnc5[nH]ccc5c4)c3)CC2)=C(c2ccc(Cl)cc2)C1 [Compound 195, 4-(4-{[2-(4-chlorophenyl)-4,4-dimethylcyclohex-1-en-1-yl]methyl}piperazin-1-yl)-N-{[3-nitro-4-({[(3R)-1-oxetan-3-ylpyrrolidin-3-yl]methyl}amino)phenyl]sulfonyl}-2-(1H-pyrrolo[2,3-b]pyridin-5-yloxy)benzamide] | > 11.00
12 | CN(C)CCCOc1ccc(CNc2ccc(S(=O)(=O)NC(=O)c3ccc(N4CCN(CC5=C(c6ccc(Cl)cc6)CC(C)(C)CC5)CC4)cc3Oc3cnc4[nH]ccc4c3)cc2[N+](=O)[O-])cc1 [Compound 197, 4-(4-{[2-(4-chlorophenyl)-4,4-dimethylcyclohex-1-en-1-yl]methyl}piperazin-1-yl)-N-{[4-({4-[3-(dimethylamino)propoxy]benzyl}amino)-3-nitrophenyl]sulfonyl}-2-(1H-pyrrolo[2,3-b]pyridin-5-yloxy)benzamide] | > 11.00
13 | CC1(C)CCC(CN2CCN(c3ccc(C(=O)NS(=O)(=O)c4ccc(NCc5ccc(OCCN6CCOCC6)cc5)c([N+](=O)[O-])c4)c(Oc4cnc5[nH]ccc5c4)c3)CC2)=C(c2ccc(Cl)cc2)C1 [Compound 198, 4-(4-{[2-(4-chlorophenyl)-4,4-dimethylcyclohex-1-en-1-yl]methyl}piperazin-1-yl)-N-[(4-{[4-(2-morpholin-4-ylethoxy)benzyl]amino}-3-nitrophenyl)sulfonyl]-2-(1H-pyrrolo[2,3-b]pyridin-5-yloxy)benzamide] | > 11.00
14 | CC1(C)CCC(CN2CCN(c3ccc(C(=O)NS(=O)(=O)c4ccc(NCC56CC7CC(C5)C(O)C(C7)C6)c([N+](=O)[O-])c4)c(Oc4cnc5[nH]ccc5c4)c3)CC2)=C(c2ccc(Cl)cc2)C1 (stereo not drawn) [Compound 199, 4-(4-{[2-(4-chlorophenyl)-4,4-dimethylcyclohex-1-en-1-yl]methyl}piperazin-1-yl)-N-{[4-({[(E)-4-hydroxy-1-adamantyl]methyl}amino)-3-nitrophenyl]sulfonyl}-2-(1H-pyrrolo[2,3-b]pyridin-5-yloxy)benzamide] | > 11.00
15 | CC1(C)CCC(CN2CCN(c3ccc(C(=O)NS(=O)(=O)c4ccc(NCC56CC7CC(C5)C(O)C(C7)C6)c([N+](=O)[O-])c4)c(Oc4cnc5[nH]ccc5c4)c3)CC2)=C(c2ccc(Cl)cc2)C1 (stereo not drawn) [Compound 200, 4-(4-{[2-(4-chlorophenyl)-4,4-dimethylcyclohex-1-en-1-yl]methyl}piperazin-1-yl)-N-{[4-({[(Z)-4-hydroxy-1-adamantyl]methyl}amino)-3-nitrophenyl]sulfonyl}-2-(1H-pyrrolo[2,3-b]pyridin-5-yloxy)benzamide] | > 11.00
16 | CN1CC(Nc2ccc(S(=O)(=O)NC(=O)c3ccc(N4CCN(CC5=C(c6ccc(Cl)cc6)CC(C)(C)CC5)CC4)cc3Oc3cnc4[nH]ccc4c3)cc2[N+](=O)[O-])CC1=O (stereo not drawn) [Compound 202, 4-(4-{[2-(4-chlorophenyl)-4,4-dimethylcyclohex-1-en-1-yl]methyl}piperazin-1-yl)-N-({4-[(1-methyl-5-oxopyrrolidin-3-yl)amino]-3-nitrophenyl}sulfonyl)-2-(1H-pyrrolo[2,3-b]pyridin-5-yloxy)benzamide] | > 11.00
17 | CC1(C)CCC(CN2CCN(c3ccc(C(=O)NS(=O)(=O)c4ccc(OCC5CCCC(=O)C5)c([N+](=O)[O-])c4)c(Oc4cnc5[nH]ccc5c4)c3)CC2)=C(c2ccc(Cl)cc2)C1 (stereo not drawn) [Compound 205, 4-(4-{[2-(4-chlorophenyl)-4,4-dimethylcyclohex-1-en-1-yl]methyl}piperazin-1-yl)-N-({3-nitro-4-[(3-oxocyclohexyl)methoxy]phenyl}sulfonyl)-2-(1H-pyrrolo[2,3-b]pyridin-5-yloxy)benzamide] | > 11.00
18 | CC1(C)CCC(CN2CCN(c3ccc(C(=O)NS(=O)(=O)c4ccc(NC[C@@H]5CCN(C6COC6)C5)c([N+](=O)[O-])c4)c(Oc4cnc5[nH]ccc5c4)c3)CC2)=C(c2ccc(Cl)cc2)C1 [Compound 209, 4-(4-{[2-(4-chlorophenyl)-4,4-dimethylcyclohex-1-en-1-yl]methyl}piperazin-1-yl)-N-{[3-nitro-4-({[(3S)-1-oxetan-3-ylpyrrolidin-3-yl]methyl}amino)phenyl]sulfonyl}-2-(1H-pyrrolo[2,3-b]pyridin-5-yloxy)benzamide] | > 11.00
